The values that follow come from ChEMBL document CHEMBL2150961, “Serum stability of selected decapeptide agonists of KISS1R using pseudopeptides” (Bioorg Med Chem Lett, 2012).

Molecules are shown by their SMILES. Starred links: 1 amine or outer side, 2 acyl side, 3 side chain; linkers in the order of their positions; H or OH if unused. Non-standard residues stand in square brackets, D forms with d. Residues, ends and D or L forms follow the SMILES beside them. X1 = O=C(CNC(=S)[C@H](Cc1ccccc1)N[*:1])[*:2]; 2Nal = N[C@@H](Cc1ccc2ccccc2c1)C(=O)O; Arg(Me) = CNC(=N)NCCC[C@H](N)C(=O)O; 3Pal = N[C@@H](Cc1cccnc1)C(=O)O; 4Pal = N[C@@H](Cc1ccncc1)C(=O)O; d4Pal = N[C@H](Cc1ccncc1)C(=O)O; azaGly = NNC(=O)O

Data set [1] deals with T1, KiSS-1 receptor (Homo sapiens, UniProt Q969F8). As to the kind of experiment: Agonist activity at human KISS1R assessed as induction of intracellular calcium mobilization by fluorometric analysis. In kind it is functional, cell-based. In general terms: A change in cytosolic calcium serves as a functional read-out for many receptors and channels.
The target in data set [2] is T1, KiSS-1 receptor. The data set is described as follows: Binding affinity to human KISS1R.
The nature of data set [3]: Metabolic stability of the compound in mouse serum assessed as compound residual ratio at 0.1 mM after 1 hr. Conditions: read-out: Stability. In kind it is ADME, cell-free.
A short description of data set [4]: Metabolic stability of the compound in human serum assessed as compound residual ratio after 5 mins. Type of data set: ADME, cell-free. To be noted: read-out: Stability.
The nature of data set [5]: Metabolic stability of the compound in human serum assessed as compound residual ratio after 10 mins. In kind it is ADME, cell-free. Conditions: read-out: Stability.
Data set [6] in a line: Metabolic stability of the compound in human serum assessed as compound residual ratio after 15 mins. In kind it is ADME, cell-free. To be noted: read-out: Stability.
Data set [7] is described as follows: Half life in human serum. Type of data set: ADME, cell-free.
In data set [8] the target is KiSS-1 receptor (Rattus norvegicus, UniProt Q924U1). As to the kind of experiment: Binding affinity to rat KISS1R.
For a further data set, the system named is Serum. The data set is described as follows: Metabolic stability of the compound in human serum. Type of data set: ADME, cell-free.
The nature of data set [9]: Drug metabolism in mouse plasma at 0.1 mM after 1 min by HPLC-ESI-MS analysis. In kind it is ADME, cell-free. Conditions: read-out: Drug metabolism.

KiSS-1 receptor (Rattus norvegicus, UniProt Q924U1), sequence (Q924U1 whole entry): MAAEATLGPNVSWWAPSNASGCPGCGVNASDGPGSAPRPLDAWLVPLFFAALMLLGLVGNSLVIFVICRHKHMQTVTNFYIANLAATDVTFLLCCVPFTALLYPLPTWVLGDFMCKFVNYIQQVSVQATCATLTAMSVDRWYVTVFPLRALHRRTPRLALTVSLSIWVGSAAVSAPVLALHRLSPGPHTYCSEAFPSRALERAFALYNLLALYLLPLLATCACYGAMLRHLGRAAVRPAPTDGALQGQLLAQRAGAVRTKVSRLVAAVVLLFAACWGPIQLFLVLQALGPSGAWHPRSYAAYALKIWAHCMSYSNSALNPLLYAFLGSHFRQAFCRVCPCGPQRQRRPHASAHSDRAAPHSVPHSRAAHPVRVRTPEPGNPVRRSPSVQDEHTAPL
T1 sequence (Q969F8 whole entry): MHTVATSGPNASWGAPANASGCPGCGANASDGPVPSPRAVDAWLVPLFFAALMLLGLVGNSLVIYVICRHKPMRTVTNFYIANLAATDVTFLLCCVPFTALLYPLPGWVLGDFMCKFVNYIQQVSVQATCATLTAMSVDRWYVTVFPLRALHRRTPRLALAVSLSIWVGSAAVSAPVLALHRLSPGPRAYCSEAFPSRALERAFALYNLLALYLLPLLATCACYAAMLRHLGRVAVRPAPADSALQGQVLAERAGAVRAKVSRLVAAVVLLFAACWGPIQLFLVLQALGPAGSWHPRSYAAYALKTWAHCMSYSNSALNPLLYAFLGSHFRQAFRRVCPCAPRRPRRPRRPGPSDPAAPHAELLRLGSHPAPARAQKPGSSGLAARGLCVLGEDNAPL

The term EC50 denotes the concentration giving half of the maximal effect. For orientation: IC50 means the point on the concentration scale where inhibition reaches its midpoint. Lower therefore signals inhibition by little substance. By half-life is commonly meant the time needed for the level to fall by half in the phase considered. Read a high half-life as slow loss. As for `CNC(N)=NCCC[C@H](NC(=O)[C@H](CC(C)C)NC(=O)CNC(=O)[C@H](Cc1ccccc1)NC(=O)[C@H](CO)NC(=O)[C@H](CC(N)=O)NC(=O)[C@H](Cc1c[nH]c2ccccc12)NC(=O)[C@H](CC(N)=O)NC(=O)[C@H](N)Cc1ccc(O)cc1)C(=O)N[C@@H](Cc1ccccc1)C(N)=O`, the EC50 on KiSS-1 receptor [1] came to 65 pM. In addition, the IC50 on KiSS-1 receptor [2] came out at 110 pM. In addition, the remaining at 1 h, 100 µM in [3] was determined as 18.1%. Further, the remaining at 5 min in [4] was found to be 90.7%. Moreover, in data set [5], the remaining at 10 min stood at 85.8%. For the same compound, the remaining at 0.25 h in data set [6] amounted to 82.7%. Besides, in data set [7], the half-life is 1.25 h.
With `CNC(N)=NCCC[C@H](NC(=O)[C@H](CC(C)C)NC(=O)CNC[C@H](Cc1ccccc1)NC(=O)[C@H](CO)NC(=O)[C@H](CC(N)=O)NC(=O)[C@H](Cc1c[nH]c2ccccc12)NC(=O)[C@H](CC(N)=O)NC(=O)[C@H](N)Cc1ccc(O)cc1)C(=O)N[C@@H](Cc1ccccc1)C(N)=O`, the EC50 on KiSS-1 receptor [1] stood at 620 pM. The IC50 at KiSS-1 receptor [2] worked out at 610 pM; at KiSS-1 receptor [8], 1400 pM. In addition, the remaining at 1 h, 100 µM in data set [3] stood at 12.1%.
The corresponding values for `CNC(N)=NCCC[C@H](NC(=O)[C@H](CC(C)C)NC(=O)CC(=O)N[C@H](Cc1ccccc1)NC(=O)[C@H](CO)NC(=O)[C@H](CC(N)=O)NC(=O)[C@H](Cc1c[nH]c2ccccc12)NC(=O)[C@H](CC(N)=O)NC(=O)[C@H](N)Cc1ccc(O)cc1)C(=O)N[C@@H](Cc1ccccc1)C(N)=O` are 950 pM, 510 pM, 2900 pM and 46.8%.
In turn, `CNC(=N)NCCC[C@H](NC(=O)[C@H](CC(C)C)NC(=O)NNC(=O)[C@H](Cc1ccccc1)NC(=O)[C@H](CO)NC(=O)[C@H](CC(N)=O)NC(=O)[C@H](Cc1c[nH]c2ccccc12)NC(=O)[C@H](CC(N)=O)NC(=O)[C@H](N)Cc1ccc(O)cc1)C(=O)N[C@@H](Cc1ccccc1)C(N)=O` registered an IC50 on KiSS-1 receptor [2] of 160 pM. Moreover, the remaining at 1 h, 100 µM in data set [3] was 39.5%.
In the case of `CNC(N)=NCCC[C@H](NC(=O)[C@H](CC(C)C)NC(=O)NNC(=O)[C@H](Cc1ccccc1)NC(=O)[C@H](CO)NC(=O)[C@H](CC(N)=O)NC(=O)[C@H](CC1CCCCC1)NC(=O)[C@H](CC(N)=O)NC(=O)[C@H](N)Cc1ccc(O)cc1)C(=O)N[C@@H](Cc1ccccc1)C(N)=O`, at KiSS-1 receptor [1], the EC50 was 100 pM. In addition, the IC50 on KiSS-1 receptor [2] was 190 pM; on KiSS-1 receptor [8], 240 pM. The remaining at 1 h, 100 µM in data set [3] is 32%.
For the compound `CNC(N)=NCCC[C@H](NC(=O)[C@H](CC(C)C)NC(=O)NNC(=O)[C@H](Cc1ccccc1)NC(=O)[C@H](CO)NC(=O)[C@H](CC(N)=O)NC(=O)[C@@H](Cc1c[nH]c2ccccc12)NC(=O)[C@H](CC(N)=O)NC(=O)[C@H](N)Cc1ccc(O)cc1)C(=O)N[C@@H](Cc1ccccc1)C(N)=O`, at KiSS-1 receptor [1], the EC50 is 72 pM. This compound showed an IC50 at KiSS-1 receptor [2] of 190 pM. Also, in [3], the remaining at 1 h, 100 µM amounted to 56.4%.
Regarding `CC[C@H](C)[C@H](NC(=O)[C@H](CC(N)=O)NC(=O)[C@H](N)Cc1ccc(O)cc1)C(=O)N[C@@H](CC(N)=O)C(=O)N[C@@H](CO)C(=O)N[C@@H](Cc1ccccc1)C(=O)NNC(=O)N[C@@H](CC(C)C)C(=O)N[C@@H](CCCNC(=N)NC)C(=O)N[C@@H](Cc1ccccc1)C(N)=O` (H-[dY]NINSF[azaGly]L[Arg(Me)]F-NH2), the EC50 on KiSS-1 receptor [1] came to 130 pM. Also, the IC50 was 430 pM on KiSS-1 receptor [2] and 460 pM on KiSS-1 receptor [8].
Consider `CNC(N)=NCCC[C@H](NC(=O)[C@H](CC(C)C)NC(=O)NNC(=O)[C@H](Cc1ccccc1)NC(=O)[C@H](CO)NC(=O)[C@H](CC(N)=O)NC(=O)[C@H](CO)NC(=O)[C@H](CC(N)=O)NC(=O)[C@H](N)Cc1ccc(O)cc1)C(=O)N[C@@H](Cc1ccccc1)C(N)=O` (H-[dY]NSNSF[azaGly]L[Arg(Me)]F-NH2), for which the EC50 at KiSS-1 receptor [1] came out at 730 pM. In addition, the half-inhibitory concentration (IC50) worked out at 490 pM on KiSS-1 receptor [2] and 430 pM on KiSS-1 receptor [8]. The remaining at 1 h, 100 µM in data set [3] stood at 50%. In addition, in data set [4], the remaining at 5 min worked out at 86.5%. For the same compound, in [5], the remaining at 10 min amounted to 85.3%. The remaining at 0.25 h in data set [6] is 86.4%. Moreover, the Stability result in the data set on Serum was “Stable”.
Take `CNC(N)=NCCC[C@H](NC(=O)[C@H](CC(C)C)NC(=O)NNC(=O)[C@H](Cc1ccccc1)NC(=O)[C@H](CO)NC(=O)[C@H](CC(N)=O)NC(=O)[C@@H](NC(=O)[C@H](CC(N)=O)NC(=O)[C@H](N)Cc1ccc(O)cc1)[C@@H](C)O)C(=O)N[C@@H](Cc1ccccc1)C(N)=O` (H-[dY]NTNSF[azaGly]L[Arg(Me)]F-NH2): the EC50 on KiSS-1 receptor [1] was 240 pM. Further, the IC50 was 860 pM on KiSS-1 receptor [2] and 830 pM on KiSS-1 receptor [8]. The remaining at 1 h, 100 µM in [3] turned out to be 62.5%.
As for `CNC(N)=NCCC[C@H](NC(=O)[C@H](CC(C)C)NC(=O)CNC(=S)[C@H](Cc1ccccc1)NC(=O)[C@H](CO)NC(=O)[C@H](CC(N)=O)NC(=O)[C@H](Cc1c[nH]c2ccccc12)NC(=O)[C@H](CC(N)=O)NC(=O)[C@H](N)Cc1ccc(O)cc1)C(=O)N[C@@H](Cc1ccccc1)C(N)=O` (H-[dY]NWNS[X1]L[Arg(Me)]F-NH2), the EC50 at KiSS-1 receptor [1] came to 41 pM. Besides, the IC50 on KiSS-1 receptor [2] was determined as 2800 pM; at KiSS-1 receptor [8], 3300 pM. The remaining at 1 h, 100 µM in data set [3] amounted to 35.3%.
For the compound `CNC(=N)NCCC[C@H](NC(=O)[C@H](CC(C)C)NC(=O)NNC(=O)[C@H](Cc1ccccc1)NC(=O)[C@H](CO)NC(=O)[C@H](CC(N)=O)NC(=O)[C@H](Cc1ccc2ccccc2c1)NC(=O)[C@H](CC(N)=O)NC(=O)[C@H](N)Cc1ccc(O)cc1)C(=O)N[C@@H](Cc1ccccc1)C(N)=O` (H-[dY]N[2Nal]NSF[azaGly]L[Arg(Me)]F-NH2), the EC50 at KiSS-1 receptor [1] came to 98 pM. Moreover, the IC50 at KiSS-1 receptor [2] stood at 130 pM; on KiSS-1 receptor [8], 200 pM. Also, the remaining at 1 h, 100 µM in data set [3] came to 43.6%.
Turning to `CNC(=N)NCCC[C@H](NC(=O)[C@H](CC(C)C)NC(=O)NNC(=O)[C@H](Cc1ccccc1)NC(=O)[C@H](CO)NC(=O)[C@H](CC(N)=O)NC(=O)[C@H](Cc1cccnc1)NC(=O)[C@H](CC(N)=O)NC(=O)[C@H](N)Cc1ccc(O)cc1)C(=O)N[C@@H](Cc1ccccc1)C(N)=O` (H-[dY]N[3Pal]NSF[azaGly]L[Arg(Me)]F-NH2), the EC50 on KiSS-1 receptor [1] came out at 240 pM. In addition, the IC50 on KiSS-1 receptor [2] was 700 pM; at KiSS-1 receptor [8], 890 pM. Besides, in [3], the remaining at 1 h, 100 µM was 50.6%.
Taken in the same sequence, the figures for `CNC(N)=NCCC[C@H](NC(=O)[C@H](CC(C)C)NC(=O)NNC(=O)[C@H](Cc1ccccc1)NC(=O)[C@H](CO)NC(=O)[C@H](CC(N)=O)NC(=O)[C@H](Cc1ccncc1)NC(=O)[C@H](CC(N)=O)NC(=O)[C@H](N)Cc1ccc(O)cc1)C(=O)N[C@@H](Cc1ccccc1)C(N)=O` (H-[dY]N[4Pal]NSF[azaGly]L[Arg(Me)]F-NH2) were 110 pM, 300 pM, 280 pM and 30.7%.
On to `CNC(N)=NCCC[C@H](NC(=O)[C@H](CC(C)C)NC(=O)NNC(=O)[C@H](Cc1ccccc1)NC(=O)[C@H](CO)NC(=O)[C@H](CC(N)=O)NC(=O)[C@@H](Cc1ccncc1)NC(=O)[C@H](CC(N)=O)NC(=O)[C@H](N)Cc1ccc(O)cc1)C(=O)N[C@@H](Cc1ccccc1)C(N)=O` (H-[dY]N[d4Pal]NSF[azaGly]L[Arg(Me)]F-NH2), for which the EC50 on KiSS-1 receptor [1] turned out to be 590 pM. Besides, the IC50 at KiSS-1 receptor [2] and at KiSS-1 receptor [8] was 280 pM throughout.
On to `CC(C)C[C@H](NC(=O)CNC(=O)[C@H](Cc1ccccc1)NC(=O)[C@H](CO)NC(=O)[C@H](CC(N)=O)NC(=O)[C@H](Cc1c[nH]c2ccccc12)NC(=O)[C@H](CC(N)=O)NC(=O)[C@@H](N)Cc1ccc(O)cc1)C(=O)N[C@@H](CCCNC(=N)N)C(=O)N[C@@H](Cc1ccccc1)C(N)=O` [KISSPEPTIN-10], for which, on KiSS-1 receptor [1], the EC50 is 49 pM. The compound further showed an IC50 on KiSS-1 receptor [2] of 82 pM. For the same compound, the metabolised at 1 min, 100 µM in [9] was above 50%. Further, in [4], the remaining at 5 min was 0.9%. For the same compound, in data set [5], the remaining at 10 min was below 0.5%. Further, the remaining at 0.25 h in data set [6] is below 0.5%. This compound also came in with a half-life in [7] below 0.0167 h.
